# Experimental data: article PMC12737022, “Evaluations of Sex Differences in Dosimetry in Rats Following Perfluorohexanesulfonamide (PFHxSA) Oral Exposure” (Toxics, 2025)
# Values joined by “and” are separate entries in the source; they are usually repeats but may differ in a detail not shown here. Equal entries are not always repeated. Where two headings read alike, the source gives them in different places.
# How the values were obtained:
# [1] = Liver-to-plasma partitioning (Kp); type: in vivo, rat; settings: male, Sprague Dawley (Crl:CD(SD)), rat, po, male
# Procedure: Liver-to-plasma partitioning (Kp) for PFHxSA was assessed for each sex (SI Text S8, Table 6). There were no sex differences in PFHxSA Kp values. […] Refer to SI Table S15 for Kp results for individual rats. […]
# Text S8 Liver-to-Plasma Partitioning Coefficient Calculation
# Concentrations (µM) of PFHxSA in liver and plasma were used to calculate experimental liver-to-
# plasma (Kp) partitioning values for both sexes across all dose levels using Equation E.
# (E) K ௣ = Concentration௢௥௚௔௡Concentration௣௟௔௦௠௔
# [2] = Solubility and stability of PFHxSA corn oil dosing solutions; type: physicochemical; settings: for Replicate percent recoveries, Day 5 / Replicate percent recoveries, Day 7 / Replicate percent recoveries, Day 14: relative to Day 0
# Procedure: The stability of PFHxSA corn oil dosing solutions was also evaluated up to 14 days. PFHxSA solutions were prepared using the same lot number of the chemical as was used in Mutlu et al.. Solutions were prepared under an inert atmosphere at a 20,000 µg/mL (20 mg/mL) high-dose solution and a 2 µg/mL ([…]) low-dose solution to mimic the range of concentrations of the dosing formulations used for the in vivo study. Each batch included an MB and an LCS prepared from blank corn oil as QC. The solutions were split into two aliquots each. One aliquot was stored at 4 °C; the other aliquot was stored at room temperature, with both protected from light. The stability samples were analyzed in triplicate on Days 0, 5, 7, and 14 using the same extraction method and LC/MS/MS conditions outlined in SI Texts S2 and S3, respectively. Stability was assessed by using mean peak areas to calculate the percent recovery for each day of analysis relative to Day 0. Information on percent recovery calculation and additional experimental details concerning the stability study may be found in SI Text S2.
# Text S1 Solvents and Additives for Analytical Chemistry
# Solvents used for sample preparation and mobile phases include methanol (MeOH), water (H2O), and acetonitrile (ACN), which were LC/MS-grade and purchased from Honeywell Burdick & Jackson (Charlotte, NC, USA). Ammonium formate (BioUltra purity) and ammonium acetate (99% pure) were used as mobile phase additives and obtained from Millipore Sigma (St. Louis, MO, USA). Formic acid (FA; 97.5% pure) was also used as an additive; it was purchased from Honeywell Fluka. Detailed information for chemicals used for each analysis may be found in Table S1.
# Text S2 Dosing-Solution Determination and Stability Assessment
# Dosing solutions were extracted by liquid–liquid extraction using 50 uL aliquots of the dosing solutions and 950 uL of 0.1M formic acid in acetonitrile, vortexing the mixture at 2000 rpm, and centrifuging at 5400 × g for 10 minutes. The supernatants were drawn off and added to Waters Oasis Prime HLB 3cc 60mg (Waters, Milford, MA, USA) solid phase extraction (SPE) cartridges. Supernatants were allowed to elute through the cartridge via gravity. Finally, 100 uL of eluent was diluted using 100 uL of 1% formic acid in water. Extracts were further diluted with the extracted method blank (corn oil) to bring the concentrations to within the calibration range. Sample extracts were analyzed using the same LC/MS/MS method outlined for PFHxSA plasma and liver in Text S4. Samples were quantitated against a matrix-matched calibration curve containing a minimum of 5 points spanning 50-500 ng/mL in extract. […]
# verification (CCV) sample and laboratory control sample (LCS) were injected at the start and end of each analytical batch to confirm the validity of the calibration curve and sample quantitation. Acceptance criteria for the CCV and LCS were readback concentrations ± 30% of nominal concentration. The method blank acceptance criterion was a readback concentration of PFHxSA < 0.5x the limit of quantitation (LOQ) of the method. The LOQ was 50 ng/mL in the extract. Samples were injected in sequential order (e.g., r01, r02, r03, …, etc.); no duplicate injections of samples were performed.
# Assessment of the stability of PFHxSA in corn oil was conducted using the same extraction method as for dosing solutions. Analysis of PFHxSA in corn oil was conducted using the same LC/MS/MS conditions as PFHxSA dosimetry in plasma and liver (Text S4). The average ratio of PFHxSA peak area to PFOSA internal standard peak area for three replicate injections was divided by the average ratio for Day 0 to derive the percentage of recovery for a given day. No calibration curve was generated for the Stability Assessment. For quality control, the extraction blank needed to have a PFHxSA signal that was ≤ 10% the peak area of PFHxSA on Day 0; the daily LCS was acceptable with a PFHxSA/PFOSA area ratio within 30% of the Day 0 LCS. […]
smiles,measurement,setting,value
"NS(=O)(=O)C(F)(F)C(F)(F)C(F)(F)C(F)(F)C(F)(F)C(F)(F)F [PFHxSA, Perfluorohexanesulfonamide]",Kp at 120 h,"[1]; liver and plasma, 1 mg/kg/day, PFHxSA 1 mg/kg/day oral 5 days, individual rats, read-out: Male Partition Coefficient (Kp), liver-plasma",0.166
same,Kp at 120 h,"[1]; liver and plasma, 3 mg/kg/day, PFHxSA 3 mg/kg/day oral 5 days, male rats, mean ± SD, read-out: PFHxSA liver-to-plasma Kp, Male Rats",0.186 ± 0.058
same,Kp at 120 h,"[1]; liver and plasma, 10 mg/kg/day, PFHxSA 10 mg/kg/day oral 5 days, male rats, mean ± SD, read-out: PFHxSA liver-to-plasma Kp, Male Rats",0.189 ± 0.041
same,Kp at 120 h,"[1]; liver and plasma, 10 mg/kg/day, PFHxSA 10 mg/kg/day oral 5 days, individual rats, read-out: Male Partition Coefficient (Kp), liver-plasma",0.191
same,Kp at 120 h,"[1]; liver and plasma, 30 mg/kg/day, PFHxSA 30 mg/kg/day oral 5 days, male rats, mean ± SD, read-out: PFHxSA liver-to-plasma Kp, Male Rats",0.144 ± 0.0075
same,Kp at 120 h,"[1]; liver and plasma, 30 mg/kg/day, PFHxSA 30 mg/kg/day oral 5 days, individual rats, read-out: Male Partition Coefficient (Kp), liver-plasma",0.156
same,Kp at 120 h,"[1]; liver and plasma, 100 mg/kg/day, PFHxSA 100 mg/kg/day oral 5 days, male rats, mean ± SD, read-out: PFHxSA liver-to-plasma Kp, Male Rats",0.403 ± 0.23
same,Kp at 120 h,"[1]; liver/plasma, 0.1 mg/kg/day, PFHxSA 0.1 mg/kg/day oral 5 days, male rats, mean ± SD, read-out: PFHxSA liver-to-plasma Kp, Male Rats",0.604 ± 0.22
same,Kp at 120 h,"[1]; liver/plasma, 0.3 mg/kg/day, PFHxSA 0.3 mg/kg/day oral 5 days, male rats, mean ± SD, read-out: PFHxSA liver-to-plasma Kp, Male Rats",0.256 ± 0.088
same,Stability of corn oil solutions,"[2]; 2 µg/mL to 20,000 µg/mL, within ±30% of the initial value, up to 14 days, room and refrigerated (4 °C) temperatures",stable
same,MeanD14 (mean of percent recoveries for Day 14 replicates),"[2]; corn oil 2 µg/mL, 4 °C",79.3%
same,"Replicate percent recoveries, Day 5","[2]; corn oil 2 µg/mL, 4 °C",90.8% and 94.3% and 97.9%
same,"Replicate percent recoveries, Day 7","[2]; corn oil 2 µg/mL, 4 °C",78.3% and 79.5% and 79.3%
same,"Replicate percent recoveries, Day 14","[2]; corn oil 2 µg/mL, 4 °C",77.3% and 77.6% and 83.0%
same,MeanD14 (mean of percent recoveries for Day 14 replicates),"[2]; corn oil 2 µg/mL, RT",97.3%
same,"Replicate percent recoveries, Day 5","[2]; corn oil 2 µg/mL, RT",97.4% and 96.8% and 96.1%
same,"Replicate percent recoveries, Day 7","[2]; corn oil 2 µg/mL, RT",81.3% and 85.5% and 80.6%
same,"Replicate percent recoveries, Day 14","[2]; corn oil 2 µg/mL, RT",97.0% and 93.3% and 102%
same,MeanD14 (mean of percent recoveries for Day 14 replicates),"[2]; corn oil 20,000 µg/mL, 4 °C",128%
same,"Replicate percent recoveries, Day 5","[2]; corn oil 20,000 µg/mL, 4 °C",110% (2×) and 119%
same,"Replicate percent recoveries, Day 7","[2]; corn oil 20,000 µg/mL, 4 °C",119% and 118% and 116%
same,"Replicate percent recoveries, Day 14","[2]; corn oil 20,000 µg/mL, 4 °C",130% and 126% and 128%
same,MeanD14 (mean of percent recoveries for Day 14 replicates),"[2]; corn oil 20,000 µg/mL, RT",88.6%
same,"Replicate percent recoveries, Day 5","[2]; corn oil 20,000 µg/mL, RT",97.3% and 103% and 98.1%
same,"Replicate percent recoveries, Day 7","[2]; corn oil 20,000 µg/mL, RT",90.1% and 94.3% and 88.4%
same,"Replicate percent recoveries, Day 14","[2]; corn oil 20,000 µg/mL, RT",88.0% and 87.2% and 90.5%
same,solubility,"[2]; corn oil, oil or lipid",20 mg/mL
